For the assay, the system named is extracted incisor tooth. Kind of assay: Tooth-whitening effect on extracted incisor tooth, images before and after treatment. The following applies: 2 minutes pre-conditioning with solution, no remineralising agent. From the text: This image was taken prior to any treatment being carried out.
The dark discolourations in the enamel of the crown of the tooth adjacent to the cavity have also disappeared.

Turning to `OCl` [hypochlorite, sodium hypochlorite], the “tooth discolouration, difference versus before treatment” value was “very little difference”.

The values above are taken from patent publication US20180289957A1, “REMINERALISATION OF CALCIFIED TISSUE” (Reminova Ltd., priority 2008, published 2018).
